# Results from patent US9566330B2, “Immunogenic composition for immune system modulation and use thereof, method for treating and preventing diseases, method for inducing cell regeneration and method for restoring immune response” (priority 2011, dated 2017).
# Assays:
# [1] = tested on: multiresistant Acinetobacter baunnamii; experiment: Cultures of the injury area, peripheral blood and central catheter: antibiotic sensitivity; format: cell-based, Acinetobacter baumannii
# Protocol: Initial assessment of the patient's injuries in the operating room on 29 Jan. […] As described, the DECA immunotherapy was applied to these areas. It is interesting to note that on this occasion cultures of internal secretions and tissue fragments were performed.
# [2] = tested on: Septicemia (Pseudomonas aeruginosa, Acinetobacter baunnamii, Proteus mirabiles); experiment: Clinical case, patient J-P: septicemia with infected complex wounds; format: in vivo, human; details: 6 Feb. 2011; Polymyxin B 20,000 IU/kg twice daily and other antimicrobials
# Excerpt: The patient was admitted to the ICU of Hospital Alemao Oswaldo Cruz for debridement and application of treatment with DECA which took the following form: • Application of 1.8 cc of the DECA composition divided into 2 applications of 0.9 cc per composition along the 10 main lymphatic territories. • 3-4 cm distance margin between applications to facilitate the reading of the evolution of the treatment at an interval of 4±1 days. These applications were made together with the surgical debridement (on average 1 to 2 times per week). • Administration of 36 extra perilesional compositions of 1.8 cc of each DECA in two applications of 0.9 cc per set, skirting the following open injuries without possibility of suture: the left inguinal region, the lateral side of the left thigh, the anterior left thigh and medial aspect of the left thigh, instep region and left lateral malleolus of the right leg. • Application of recombinant human interleukin-2 at low doses, at a receptor saturation level with a concentration of 1 to 2 million units per m^2 of the patient's body surface located in the region of the extra DECA applications. […]
compound,measurement,setting,value
Polymyxin B,Pre-immunotherapy cultures (29/01/2011): sensitivity of the isolate,[1]; Central catheter,baumannii only sensitive
same,Pre-immunotherapy cultures (29/01/2011): sensitivity of the isolate,[1]; Injury in the left thigh,baumannii only sensitive
same,Pre-immunotherapy cultures (29/01/2011): sensitivity of the isolate,[1]; Peripheric blood,baumannii only sensitive
same,sensitivity of the isolate,"[1]; isolates of left thigh wound, peripheral blood and central catheter, result of 1 Feb. 2011",sensitive
same,toxicity,[2],acute renal failure with oliguria
C[C@H]1[C@H](NC(=O)/C(=N\OC(C)(C)C(=O)O)c2csc(N)n2)C(=O)N1S(=O)(=O)O [Aztreonam],Pre-immunotherapy cultures (29/01/2011): sensitivity of the isolate,[1]; Central catheter,baumannii only sensitive
same,Pre-immunotherapy cultures (29/01/2011): sensitivity of the isolate,[1]; Injury in the left thigh,baumannii only sensitive
